Target: T1, human kinase Mps-1 (Homo sapiens, UniProt P33981)
T1 construct: N-terminally GST-tagged human full length recombinant Mps-1 kinase; GST (N); purchased Invitrogen, Karslruhe, Germany PV4071
T1 sequence (P33981 1-857): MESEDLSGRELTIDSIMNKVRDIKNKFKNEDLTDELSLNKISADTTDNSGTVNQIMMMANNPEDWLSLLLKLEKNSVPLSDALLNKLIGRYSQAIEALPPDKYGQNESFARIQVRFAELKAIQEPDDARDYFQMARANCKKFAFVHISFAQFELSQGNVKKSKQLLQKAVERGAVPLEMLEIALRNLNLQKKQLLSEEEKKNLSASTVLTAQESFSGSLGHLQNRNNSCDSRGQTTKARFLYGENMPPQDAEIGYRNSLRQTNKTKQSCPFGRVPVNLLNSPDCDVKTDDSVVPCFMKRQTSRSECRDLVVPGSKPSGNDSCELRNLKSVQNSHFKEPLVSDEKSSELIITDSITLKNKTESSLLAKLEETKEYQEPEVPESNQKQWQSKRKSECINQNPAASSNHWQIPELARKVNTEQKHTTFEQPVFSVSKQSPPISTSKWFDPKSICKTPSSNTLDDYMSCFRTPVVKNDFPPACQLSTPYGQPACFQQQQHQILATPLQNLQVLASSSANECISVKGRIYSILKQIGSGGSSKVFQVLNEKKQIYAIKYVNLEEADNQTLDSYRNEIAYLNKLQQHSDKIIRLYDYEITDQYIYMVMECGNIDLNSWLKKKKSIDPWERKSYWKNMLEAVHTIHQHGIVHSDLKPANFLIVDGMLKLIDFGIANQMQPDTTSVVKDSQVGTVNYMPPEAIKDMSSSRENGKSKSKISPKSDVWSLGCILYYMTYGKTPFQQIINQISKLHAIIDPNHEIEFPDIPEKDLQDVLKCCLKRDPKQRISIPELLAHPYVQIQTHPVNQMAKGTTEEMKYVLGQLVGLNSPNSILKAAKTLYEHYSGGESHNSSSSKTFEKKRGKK
Assay: Mps-1 kinase assay (TR-FRET)
Assay type: biochemical
Settings: N-terminally GST-tagged human full length recombinant Mps-1; 10 μM ATP; 1 μM peptide substrate; 15 min pre-incubation; 60 min at 22° C.
Description: The human kinase Mps-1 phosphorylates a biotinylated substrate peptide. Detection of the phosphorylated product is achieved by time-resolved fluorescence resonance energy transfer (TR-FRET) from Europium-labelled anti-phospho-Serine/Threonine antibody as donor to streptavidin labelled with cross-linked allophycocyanin (SA-XLent) as acceptor. Compounds are tested for their inhibition of the kinase activity.
N-terminally GST-tagged human full length recombinant Mps-1 kinase (purchased from Invitrogen, Karslruhe, Germany, cat. no PV4071) was used. As substrate for the kinase reaction a biotinylated peptide of the amino-acid sequence […] (C-terminus in amide form, purchased from Biosynthan GmbH, Berlin) was used.
The concentration of Mps-1 in the assay was adjusted to the activity of the enzyme lot and was chosen appropriate to have the assay in the linear range, typical enzyme concentrations were in the range of about 1 nM (final conc. in the 5 μl assay volume).
The resulting mixture was incubated 1 h at 22° C. to allow the binding of the phosphorylated peptide to the anti-phospho(Ser/Thr)-Europium-antibody. Subsequently the amount of phosphorylated substrate was evaluated by measurement of the resonance energy transfer from the Europium-labelled anti-phospho(Ser/Thr) antibody to the Streptavidin-XLent. Therefore, the fluorescence emissions at 620 nm and 665 nm after excitation at 350 nm was measured in a Viewlux TR-FRET reader (PerkinElmer LAS, Rodgau-Jügesheim, Germany). The “blank-corrected normalized ratio” (a Viewlux specific readout, similar to the traditional ratio of the emissions at 665 nm and at 622 nm, in which blank and Eu-donor crosstalk are subtracted from the 665 nm signal before the ratio is calculated) was taken as the measure for the amount of phosphorylated substrate.

IC50 [nM]	SMILES
1.1	O=C(NC1CC1)c1ccc(-c2cnc3c(NCCCF)nc(-c4ccccc4)cn23)cc1 [Example 2-62, N-cyclopropyl-4-{8-[(3-fluoropropyl)amino]-6-phenylimidazo[1,2-a]pyrazin-3-yl}benzamide]
2.3	COC(=O)CCNc1nc(-c2ccccc2)cn2c(-c3ccc(C(=O)NC4CC4)cc3)cnc12 [Example 2-33, methyl N-{3-[4-(cyclopropylcarbamoyl)phenyl]-6-phenylimidazo[1,2-a]pyrazin-8-yl}-beta-alaninate]
6.9	CC(C)CNc1nc(-c2cccc(F)c2)cn2c(-c3ccc(C(=O)NC4CC4)cc3)cnc12 [Example 1-40, N-cyclopropyl-4-{6-(3-fluorophenyl)-8-[(2-methylpropyl)amino]imidazo[1,2-a]pyrazin-3-yl}benzamide]
12.9	CC(C)(O)CNc1nc(-c2ccc(F)cc2)cn2c(-c3ccc(C(=O)NC4CC4)c(Cl)c3)cnc12 [Example 1-98, 2-chloro-N-cyclopropyl-4-{6-(4-fluorophenyl)-8-[(2-hydroxy-2-methyl-propyl)amino]imidazo [1,2-a]pyrazin-3-yl} benzamide]
10.3	CC(C)(O)CNc1nc(-c2ccccc2CO)cn2c(-c3ccc(C(=O)NC4CC4)cc3)cnc12 [Example 1-132, N-cyclopropyl-4-{6-[2-(hydroxymethyl)phenyl]-8-[(2-hydroxy-2-methylpropyl)amino]imidazo[1,2-a]pyrazin-3-yl}benzamide]
1.5	Cn1nccc1CNc1nc(-c2ccccc2)cn2c(-c3ccc(C(=O)NC4CC4)cc3)cnc12 [Example 2-54, N-cyclopropyl-4-(8-{[(1-methyl-1H-pyrazol-5-yl)methyl]amino}-6-phenylimidazo[1,2-a]pyrazin-3-yl)benzamide]
3.8	O=C(NC1CC1)c1ccc(-c2cnc3c(NCc4ccccc4)nc(-c4ccccc4)cn23)cc1 [Example 2-15, 4-[8-(benzylamino)-6-phenylimidazo[1,2-a]pyrazin-3-yl]-N-cyclopropyl-benzamide]
3.3	Cc1cc(-c2cnc3c(NCC4CCOC4)nc(-c4ccc(F)cc4)cn23)ccc1C(=O)NC1CC1 (centres unmarked) [Example 10-11, N-cyclopropyl-4-{6-(4-fluorophenyl)-8-[(tetrahydrofuran-3-yl-methyl)amino]imidazo [1,2-a]pyrazin-3-yl}-2-methylbenzamide]
2.4	O=C(NC1CC1)c1ccc(-c2cnc3c(NCCCC(F)(F)F)nc(-c4ccccc4)cn23)cc1 [Example 2-51, N-cyclopropyl-4-{6-phenyl-8-[(4,4,4-trifluorobutyl)amino]imidazo[1,2-a]pyrazin-3-yl}benzamide]
1.6	O=C(NC1CC1)c1ccc(-c2cnc3c(NCCCO)nc(-c4ccccc4)cn23)cc1 [Example 2-17, N-cyclopropyl-4-{8-[(3-hydroxypropyl)amino]-6-phenylimidazo[1,2-a]pyrazin-3-yl}benzamide]
5.5	O=C(NC1CC1)c1ccc(-c2cnc3c(NCCc4ccncc4)nc(-c4ccccc4)cn23)cc1 [Example 2-41, N-cyclopropyl-4-(6-phenyl-8-{[2-(pyridin-4-yl)ethyl]amino}imidazo[1,2-a]pyrazin-3-yl) benzamide]
119	Cc1cc(-c2cnc3c(NCC4CCN(C)C4)nc(-c4ccc(F)cc4)cn23)ccc1C(=O)NC1CC1 (centres unmarked) [Example 10-8, N-cyclopropyl-4-[6-(4-fluorophenyl)-8-{[(1-methylpyrrolidin-3-yl)methyl]amino}imidazo [1,2-a]pyrazin-3-yl]-2-methylbenzamide]
4.4	O=C(NC1CC1)c1ccc(-c2cnc3c(NC[C@H](O)CO)nc(-c4ccccc4)cn23)cc1 [Example 2-82, N-cyclopropyl-4-(8-{[(2S)-2,3-dihydroxypropyl]amino}-6-phenylimidazo[1,2-a]pyrazin-3-yl)benzamide]
1	CC(C)CNc1nc(-c2cccc3ncccc23)cn2c(-c3ccc(C(=O)NC4CC4)cc3)cnc12 [Example 1-20, N-cyclopropyl-4-{8-[(2-methylpropyl)amino]-6-(quinolin-5-yl)imidazo [1,2-a]pyrazin-3-yl} benzamide]
2.3	O=C(NC1CC1)c1ccc(-c2cnc3c(NCC4CCC4)nc(-c4ccccc4)cn23)cc1 [Example 2-73, 4-{8-[(Cyclobutylmethyl)amino]-6-phenylimidazo[1,2-a]pyrazin-3-yl}-N-cyclopropylbenzamide]
11.2	CC(=O)Nc1ccccc1-c1cn2c(-c3ccc(C(=O)NC4CC4)cc3)cnc2c(NCC(C)C)n1 [Example 1-14, 4-{6-[2-(acetylamino)phenyl]-8-[(2-methyl-propyl)amino]imidazo [1,2-a]pyrazin-3-yl}-N-cyclopropylbenzamide]
1.1	CC(C)(O)CNc1nc(-c2ccccc2)cn2c(-c3ccc(C(=O)NC4CC4)cc3)cnc12 [Example 1-125, N-cyclopropyl-4-{8-[(2-hydroxy-2-methylpropyl)amino]-6-phenylimidazo[1,2-a]pyrazin-3-yl}benzamide]
1.5	CC(C)CNc1nc(-c2ccc(N3CCOCC3)cc2)cn2c(-c3ccc(C(=O)NC4CC4)cc3)cnc12 [Example 1-91, N-cyclopropyl-4-{8-[(2-methylpropyl)amino]-6-[4-(morpholin-4-yl)phenyl]imidazo[1,2-a]pyrazin-3-yl}benzamide]
78.3	CN(C)c1ccc(-c2cn3c(-c4ccc(C(=O)NC5CC5)c(Cl)c4)cnc3c(NCC3CCCO3)n2)cc1 (centres unmarked) [Example 1-105, 2-chloro-N-cyclopropyl-4-{6-[4-(dimethylamino)phenyl]-8-[(tetrahydro-furan-2-ylmethyl)amino]imidazo[1,2-a]pyrazin-3-yl}benzamide]
3.1	O=C(NC1CC1)c1ccc(-c2cnc3c(NCC(F)F)nc(-c4ccccc4)cn23)cc1 [Example 2-52, N-cyclopropyl-4-{8-[(2,2-difluoroethyl)amino]-6-phenylimidazo[1,2-a]pyrazin-3-yl}benzamide]
2.7	O=C(NC1CC1)c1ccc(-c2cnc3c(NCc4cc[nH]n4)nc(-c4ccccc4)cn23)cc1 [Example 2-55, N-cyclopropyl-4-{6-phenyl-8-[(1H-pyrazol-3-ylmethyl)amino]imidazo[1,2-a]pyrazin-3-yl} benzamide]
86.5	CC(C)(O)CNc1nc(-c2ccccc2CO)cn2c(-c3ccc(C(=O)NC4CC4)c(Cl)c3)cnc12 [Example 1-100, 2-chloro-N-cyclopropyl-4-{6-[2-(hydroxymethyl)phenyl]-8-[(2-hydroxy-2-methylpropyl)amino]imidazo[1,2-a]pyrazin-3-yl}benzamide]
8.1	CC(C)CNc1nc(-c2cccc(C(=O)N(C)C)c2)cn2c(-c3ccc(C(=O)NC4CC4)cc3)cnc12 [Example 1-27, 3-{3-[4-(cyclopropyl-carbamoyl)phenyl]-8-[(2-methylpropyl)amino]imidazo[1,2-a]pyrazin-6-yl}-N,N-dimethyl-benzamide]
11.2	CN(C)c1ccc(-c2cn3c(-c4ccc(C(=O)NC5CC5)c(F)c4)cnc3c(NCCC(F)(F)F)n2)cc1 [Example 1-113, N-cyclopropyl-4-{6-[4-(dimethylamino)phenyl]-8-[(3,3,3-trifluoropropyl)amino]imidazo[1,2-a]pyrazin-3-yl}-2-fluoro-benzamide]
7.1	Cc1cc(-c2cnc3c(NCCCC(C)O)nc(-c4ccc(F)cc4)cn23)ccc1C(=O)NC1CC1 (centres unmarked) [Example 10-12, N-cyclopropyl-4-{6-(4-fluorophenyl)-8-[(4-hydroxypentyl)amino]imidazo[1,2-a]pyrazin-3-yl}-2-methylbenzamide]
13.8	O=C(NC1CC1)c1ccc(-c2cnc3c(NCc4cccc(Cl)c4)nc(-c4ccccc4)cn23)cc1 [Example 2-6, 4-{8-[(3-chlorobenzyl)amino]-6-phenylimidazo [1,2-a]pyrazin-3-yl}-N-cyclopropylbenzamide]

From US20140187548A1, “6 SUBSTITUTED IMIDAZOPYRAZINES FOR USE AS MPS-1 AND TKK INHIBITORS IN THE TREATMENT OF HYPERPROLIFERATIVE DISORDERS” (BAYER INTELLECTUAL PROPERTY GMBH, priority 2010, published 2014)
